Assay results published in patent US7611696B2, “Sunscreen compositions as well as dihydropyridines and dihydropyranes” (DSM IP Assets B.V., priority 2002, dated 2009).

Columns and labels:
[1] = UV absorption (λmax and ε) of the prepared UV-A screening compounds; type: physicochemical; conditions: UV absorption maximum; solvent not stated

Structure (SMILES)	UV: λmax [1]	melting point
CCCCC(CC)COCCCN1C(C)=CC(=C(C#N)C#N)C=C1C (stereo not shown) [1-N-[3-(2-ethylhexyloxy)propyl]-4-dicyanomethylene-2,6-dimethyl-1,4-dihydropyridine]	370 nm	
CCC1=C(C)C(=C(C#N)C#N)C(C)=C(CC)O1 [Example 3, 2-(2,6-diethyl-3,5-dimethylpyran-4-ylidene)malononitrile]	366 nm	64 to 65 °C
CC1=CC(=C(C#N)C#N)C=C(C)N1C [1-N-methyl-4-dicyanomethylene-2,6-dimethyl-1,4-dihydropyridine]	368 nm	> 250 °C
CCCCC(CC)COCCCN1C(C)=CC(=C(C#N)C(=O)OCC(CC)CCCC)C=C1C (stereo not shown) [Example 8, 2-ethylhexyl (1-N-[3-(2-ethylhexyloxy)propyl]-2,6-di-methyl-1H-pyridin-4ylidene)cyanoacetate]	366 nm	69 to 70 °C
CCCCN1C(C)=CC(=C(C#N)C#N)C=C1C [1-N-butyl-4-dicyanomethylene-2,6-dimethyl-1,4-dihydropyridine]	370 nm	
CCCCC(CC)COC(=O)C(C#N)=C1C=C(C)N(CCCC)C(C)=C1 (stereo not shown) [Example 7, 2-ethylhexyl (1-N-butyl-2,6-dimethyl-1H-pyridin-4-ylidene)cyanoacetate]	374 nm	69 to 70 °C
CCCCC(CC)CN1C(C)=CC(=C(C#N)C#N)C=C1C (stereo not shown) [Example 5, 1-N-(2-ethylhexyl)-4-dicyanomethylene-2,6-dimethyl-1,4-dihydropyridine]	372 nm	187 °C
CCCC1=C(CC)C(=C(C#N)C#N)C(CC)=C(CCC)O1 [Example 4, 2-(3,5-diethyl-2,6-dipropylpyran-4-ylidene)malononitrile]	364 nm	
CCCCC(CC)COC(=O)C(C#N)=C1C=C(C)OC(C)=C1 (stereo not shown) [Example 2, 2-ethylhexyl (2,6-dimethyl-pyran-4-ylidene) cyanoacetate]	352 nm	
CC1=CC(=C(C#N)C#N)C=C(C)N1CCC(C)CC(C)(C)C (stereo not shown) [1-N-[3,5,5-trimethylhexyl]-4-dicyanomethylene-2,6-dimethyl-1,4-dihydropyridine]	372 nm	
CC1=CC(=C(C#N)C#N)C=C(C)N1CCCOCCOCCOCCCN1C(C)=CC(=C(C#N)C#N)C=C1C [Example 9, 2-{1-[3-(2-{2-[3-(4-dicyanomethylene-2,6-dimethyl-4H-pyridin-1-yl)-propoxy]-ethoxy}-ethoxy)-propyl]-2,6-dimethyl-1H-pyridin-4-ylidene}-malononitrile]	372 nm	138 to 139 °C
CCOC(=O)C(C#N)=C1C=C(C)OC(C)=C1 [Example 1, ethyl (2,6-dimethyl-pyran-4-ylidene) cyanoacetate]	348 nm	
CCCCCCCCCCCCN1C(C)=CC(=C(C#N)C#N)C=C1C [1-N-dodecyl-4-dicyanomethylene-2,6-dimethyl-1,4-dihydropyridine]	370 nm	
